Laboratory results from patent publication US20110077230A1, “COPPER ORGANOCOMPLEXES, USE THEREOF AS ANTITUMOR MEANS AND FOR PROTECTING HEALTHY TISSUE FROM IONIZING RADIATION” (CHARITE - UNIVERSITATSMEDIZIN BERLIN, priority 2008, published 2011).

Assays:
[1] = system: primary lymphoblasts from ALL patients; assay: Ex vivo induction of apoptosis in primary lymphoblasts; format: cell-based, human; settings: concentration in LC50 range of NALM-6, 60 hours, cells resistant to daunorubicin and doxorubicin
Procedure: Thereafter, the cells were incubated for 60 hours at 37° C. and 5% CO2, subsequently stained with propidium iodide and quantified using flow cytometry in an FACS.

lymphoma cells (BJAB) = assay: Combined administration of complex A and cytarabine, DNA fragmentation; format: cell-based, human; settings: 48 hours
Procedure: Incubation was performed for 48 hours at 37° C. and 5% CO2, carrying along zero and solvent controls. DNA fragmentation is determined by flow cytometry after staining the cells with propidium iodide.

[2] = system: Human lymphoma cells (BJAB); assay: In vivo inhibition of tumor growth, BJAB implanted in SCID mice; settings: 10 mg/kg peroral, suspended in olive oil
Procedure: Human lymphoma cells (BJAB) were implanted in six SCID mice. After a tumor with a diameter of 5 mm had formed, the mice were subjected to peroral treatment with complex A at a dose of 10 mg/kg, suspended in olive oil. The control group consisted of 10 animals treated with olive oil only.
* denotes the significance (p≦0.05) in the Mann-Whitney U-test.

melanoma B 16 = assay: B 16 melanoma in mice, peroral administration versus intraabdominal injection; format: in vivo, mice of the line C 57Bl; parameters: Average weight of tumor: unit not given here; settings: for Average weight of tumor: day 16
Procedure: The melanoma B 16 was implanted in 23 mice of the line C 57Bl by subcutaneous injection into the right thigh. The animals were divided into five groups of four to five mice each.
Group I received complex A at a dosage of 7 mg/kg as a suspension in olive oil which was administered perorally 3, 5, 7 and 9 days after transplantation of the tumor.
Group II was treated as group I, but using a dosage of 10 mg/kg administered on the 3rd, 4th, 5th, 6th, 7th, 8th, 9th and 10th day.
Group III was treated as group II, but using a dosage of 15 mg/kg.
Group IV received complex A 3, 5, 7 and 9 days after transplantation of the tumor at a dosage of 7 mg/kg, dissolved in DMSO, to which end the solution was administered by injection in the form of a 4% suspension in physiological saline.
Group V received no treatment.
On day 16 of the experiment the animals were sacrificed and examined.

[3] = system: Ehrlich ascites adenocarcinoma; assay: Ehrlich ascites adenocarcinoma in mice; format: in vivo, white mice
Procedure: The tumor was implanted intraabdominally in white mice of no particular race.
Group I received complex A orally as a suspension in olive oil at a dosage of 10 mg/kg 3, 4, 5, 6, 7, 8, 9 and 10 days after tumor implantation.
Group II received the same treatment, but using sarcolysine instead of complex A.
Group III received no treatment.
The animals were sacrificed and examined on the 11th day after tumor implantation.

Walker carcinosarcoma = assay: Nitrosyl complexes of hem iron (EPR) in Walker carcinosarcoma; format: in vivo, rats; settings: 30 mg/kg intraabdominally in liposomes, especially with hyperglycemia and ultrasound
Excerpt: The oxygen metabolism in malignant cells is affected in such a way that increased NO production in these cells results in increased binding of NO to the hem iron, thereby disturbing the normal function thereof. The formation of such NO bonds becomes manifest in the EPR spectrum as a characteristic triplet overlying a singlet.
The effect of complex A on the concentration of Fe—NO bonds was investigated in an experiment using rats. The Walker carcinosarcoma was transplanted in the rats. 17 days after transplantation the animals were administered intraabdominally with complex A at a dosage of 30 mg/kg, suspended in liposomes from egg lecithin. Some of the animals also received glucose or glucose plus ultrasound.

EAC cells = assay: Cytosolic calcium (chlortetracycline fluorescence) in EAC cells; format: cell-based, mice; settings: depending on the dose
Procedure: The Ehrlich ascites carcinoma (EAC) was obtained from white male mice of the strain MNR1 and the thymocytes from the thymus of rats of the Wistar line. Vitality of the cells was tested by vital staining using trypan blue and experiments and determined to be no less than 95% in all experiments. The NADH state in the EAC cells was assessed with reference to their fluorescence intensity. Measurement of the intracellular calcium concentration was performed according to the standard methodology of fluorescence using chlortetracycline. The membrane potential was measured using the fluorescent dye No. 1104. NADH is a source of electrons in the oxidative phosphorylation process. […] These effects are directed to inhibiting the NAD-dependent dehydrogenase. As a result, the respiratory chain in the tumor cells is inhibited.
The concentration of intracellular calcium is a trigger for a number of intracellular processes (FIG. 17c, 17d).

[4] = system: hematopoietic cells in the spleen; assay: Radioprotective effect in irradiated mice; format: in vivo, white mice; settings: 6 Gray; 5 mg/kg two hours prior to and three days after irradiation; day 9
Procedure: White mice of no particular race were irradiated with a sublethal dose of 6 Gray. […] The animals were sacrificed on day 9 after irradiation, and the number of hematopoietic cells in the spleen was determined. No hematopoietic cells were detected in the spleen of untreated animals.

neutrophils = assay: Antioxidant properties: ROS formation in neutrophils; format: cell-based, male mice of the NMRI line; settings: triggered by PMA and fMLF, depending on the dosage
Excerpt: The complexes A and C show a pronounced effect as antioxidant in an environment having an excess of reactive oxygen species (ROS). Thus, ROS formation in neutrophils obtained from male mice of the NMRI line was triggered by two activators: phorbol 12-myristate 13-acetate (PMA) and N-formyl-methionyl-leucylphenylalanine (fMLF).

[5] = Solubility and stability of the complexes

In the case of “Copper-sarcolysine hydrochloride complex [complex A]”, the “induction of apoptosis in lymphoblasts” value [1] is reported as “about 26%”, the “synergy effect with cytarabine, induction of apoptosis” value (lymphoma cells (BJAB)) is reported as 129% and the “inhibition of tumor growth” value [2] is reported as “significant inhibition of tumor growth”. For the same substance, the “% inhibition, mass percent” value (melanoma B 16; Group I: peroral 7 mg/kg) was 62.0%, the “% inhibition, volume percent” value (melanoma B 16; Group I: peroral 7 mg/kg) was 84.1% and the “Average volume of tumor” value (melanoma B 16; Group I: peroral 7 mg/kg) was 1.39 cm^3. The “Average weight of tumor” value (melanoma B 16; Group I: peroral 7 mg/kg in olive oil, days 3, 5, 7, 9) was 0.96 ± 0.14, the “% inhibition, mass percent” value (melanoma B 16; Group II: peroral 10 mg/kg) was 73.10% and the “% inhibition, volume percent” value (melanoma B 16; Group II: peroral 10 mg/kg) was 76.0%. The “Average volume of tumor” value (melanoma B 16; Group II: peroral 10 mg/kg) was 1.55 cm^3, the “Average weight of tumor” value (melanoma B 16; Group II: peroral 10 mg/kg, days 3 to 10) was 0.68 ± 0.34 and the “% inhibition, mass percent” value (melanoma B 16; Group III: peroral 15 mg/kg) was 100%. For the same substance, the “% inhibition, volume percent” value (melanoma B 16; Group III: peroral 15 mg/kg) was 100%, the “Average volume of tumor” value (melanoma B 16; Group III: peroral 15 mg/kg) was 0 cm^3 and the “Average weight of tumor” value (melanoma B 16; Group III: peroral 15 mg/kg, days 3 to 10) was 0. For the same substance, the “% inhibition, mass percent” value (melanoma B 16; Group IV: injection 7 mg/kg) was 68.0%, the “% inhibition, volume percent” value (melanoma B 16; Group IV: injection 7 mg/kg) was 76.7% and the “Average volume of tumor” value (melanoma B 16; Group IV: injection 7 mg/kg) was 1.5 cm^3. The “Average weight of tumor” value (melanoma B 16; Group IV: injection 7 mg/kg in DMSO/physiological saline, days 3, 5, 7, 9) was 1.025 ± 0.39, the “fate of the tumor” value (melanoma B 16; group 3: peroral 15 mg/kg) was “disappeared completely” and the “% inhibition” value ([3]; 10 mg/kg orally) was 75.3%. For the same substance, the “Average MI of bone marrow” value ([3]; 10 mg/kg orally) was 0.95 ± 0.47 ‰, the “Average MI of tumor cells” value ([3]; 10 mg/kg orally) was 1.0 ± 0.7 ‰ and the “Average number of tumor cells” value ([3]; 10 mg/kg orally in olive oil, days 3 to 10, day 11) was 40′ 10^6. The “concentration of Fe—NO bonds (EPR)” value (Walker carcinosarcoma) was “significantly reduces”, the “concentration of cytosolic calcium” value (EAC cells) was “increase” and the “number of colonies of hematopoietic cells in the spleen” value [4] was “about 40 colonies”. The “formation of ROS in neutrophils” value (neutrophils) was “reduce or completely suppress”, the “solubility in DMSO” value ([5]; dimethyl sulfoxide (DMSO)) was “dissolves” and the “solubility in organic solvents” value ([5]; most / many organic solvents) was “insoluble”. For the same substance, the “stability at room temperature” value ([5]; room temperature, even when exposed to oxygen) was “stable” and the solubility in water ([5]; water) was “insoluble”.
